Results from US20040110821A1, “GAL3 receptor antagonists for the treatment of affective disorders” (priority 2002, published 2004).
Where “and” joins values, the source holds several entries; their conditions need not be identical. Identical values can stand only once. Marks after values point to notes of the source that are not given here.

Tested on: Male Sprague-Dawley rats
Assay: Rat Forced Swim Test (FST)
Type: in vivo
Conditions: for overall profile in the Forced Swim Test (conclusion in words): rat, in vivo
[1] = 3 mg/kg p.o., single administration 1 hr before 5 min test
[2] = 5 mg/kg p.o., single administration 1 hr before 5 min test
[3] = 10 mg/kg p.o., single administration 1 hr before 5 min test, listed as Fluox
[4] = 10 mg/kg p.o., single administration 1 hr before 5 min test, listed as fluoxetine
[5] = 10 mg/kg p.o., single administration 24 hours before the test
[6] = 1 mg/kg p.o., single administration 1 hr before 5 min test
[7] = 10 mg/kg p.o., single administration 1 hr before 5 min test
[8] = 3 mg/kg p.o., single administration 1 hr before 5 min test, listed as EX22
[9] = 10 mg/kg p.o., single administration 1 hr before 5 min test, listed as EX22
[10] = 30 mg/kg p.o., single administration 1 hr before 5 min test
[11] = 30 mg/kg p.o., single administration 1 hr before 5 min test, listed as EX22
[12] = 3 mg/kg p.o., single administration 24 hours before the test

SMILES | Swimming [1] | Climbing [1] | Diving [1] | Immobility [1] | Climbing [7] | Diving [7] | Immobility [7] | Swimming [7] | overall profile in the Forced Swim Test (conclusion in words) | Climbing [10] | Diving [10] | Immobility [10] | Swimming [10] | further results
O=C1C(=Nc2cc(Cl)cc(Cl)c2)c2ccccc2N1c1ccccc1 [EX103] | 13.2 ± 1.9 counts |  |  |  |  |  |  |  |  |  |  |  |  | 
CNCCC(Oc1ccc(C(F)(F)F)cc1)c1ccccc1 (stereo not shown) [Fluoxetine, fluoxetine, reference compound] |  |  |  |  |  |  |  |  |  |  |  |  |  | Climbing [2]: not significantly altered; Diving [2]: not significantly altered; Immobility [2]: did not significantly alter immobility; Swimming [2]: did not significantly alter swimming; Climbing (10 mg/kg i.p., single injection 1 h before 5 min test): did not significantly alter climbing counts; Immobility [3]: 38 ± 2.3^a counts and 34 ± 2.3^b counts and 34 ± 3.0^a counts and 34 ± 3.3^b counts and 38 ± 1.3^b counts and 39 ± 1.7^d counts and 38 ± 2.2 counts; Swimming [3]: 19.8 ± 1.8^e counts and 21.8 ± 1.4^c counts and 22.8 ± 2.2^c counts and 21.3 ± 1.8^d,e counts and 21.6 ± 1.1^e counts and 19.2 ± 1.2^e counts and 20.0 ± 1.5^c counts; Diving (10 mg/kg p.o., single administration 1 hr before 5 min test, listed as fluoxet-ine): not significantly altered; Diving [4]: not significantly altered; Immobility [4]: significantly decreased immobility; Swimming [4]: significant increase in swimming behavior; Climbing [5]: not significantly altered; Diving [5]: not significantly altered; Immobility [5]: significantly decreased immobility; Swimming [5]: significant increase in swimming behavior
CN(C)c1cc(Nc2ccc(Cl)c(Cl)c2)nc(N2CCN(Cc3ccccc3)CC2)n1 [EX151] | 19.5 ± 1.5^e counts | 2.4 ± 0.5 counts | 0.3 ± 0.2 counts | 38 ± 2.0^a counts | 2.2 ± 0.5 counts | 0.3 ± 0.2 counts | 39 ± 1.8^b counts | 18.9 ± 1.5^e counts |  |  |  |  |  | Climbing [6]: 2.3 ± 0.6 counts; Diving [6]: 0.2 ± 0.2 counts; Immobility [6]: 41 ± 2.0 counts; Swimming [6]: 16.8 ± 1.4^d counts
CN(C)c1cc(Nc2ccc(Cl)c(Cl)c2)nc(N2CCN(Cc3ccccc3)CC2)n1 [Example 151] | significantly increased swimming | not significantly altered | not significantly altered | significantly decreased immobility | not significantly altered | not significantly altered | significantly decreased immobility | significantly increased swimming | produces behavioral effects in the FST in rats that resemble those of antidepressants |  |  |  |  | Climbing [6]: not significantly altered; Diving [6]: not significantly altered; Immobility [6]: did not significantly alter immobility; Swimming [6]: significantly increased swimming
Cc1ccc(Nc2cc(N3CCCCC3)nc(N(C)CCc3ccccc3)n2)cc1 [Example 22] | did not significant alter swimming behavior | 2.0 ± 0.6 counts | not significantly altered | 50 ± 0.9 counts | 2.9 ± 0.5 counts | not significantly altered | significant decrease in immobility | significant increase in swimming | has antidepressant-like properties | significant increase in climbing | not significantly altered | significant decrease in immobility | significantly greater increase in swimming behavior | Diving [8]: 0.4 ± 0.4 counts; Swimming [8]: 7.6 ± 0.5 counts; Diving [9]: 0.4 ± 0.3 counts; Immobility [9]: 41 ± 1.3^c counts; Swimming [9]: 15.3 ± 0.8^g counts; Climbing [11]: 5.2 ± 1.0^a counts; Diving [11]: 0.0 ± 0.0 counts; Immobility [11]: 31 ± 2.8^b counts; Swimming [11]: 23.2 ± 2.0^f counts
O=C1/C(=N\c2ccc(Cl)c(Cl)c2)c2ccccc2N1c1ccsc1 [Example 272, (3Z)-3-[(3,4-DICHLOROPHENYL)IMINO]-1-(3-THIENYL)-1,3-DIHYDRO-2H-INDOL-2-ONE] |  |  |  |  |  |  |  |  | has the profile of an antidepressant-like |  |  |  |  | Climbing [12]: not significantly altered; Diving [12]: not significantly altered; Immobility [12]: significantly decreased immobility; Swimming [12]: significant increase in swimming behavior
O=C1C(=Nc2cc(Cl)cc(Cl)c2)c2ccccc2N1c1ccccc1 [Example 103, 3-[(3,5-DICHLOROPHENYL)IMINO]-1-PHENYL-1,3-DIHYDRO-2H-INDOL-2-ONE] | did not significantly alter swimming behavior | not significantly altered | not significantly altered | did not significantly alter immobility | not significantly altered | not significantly altered | did not significantly alter immobility | did not significantly alter swimming behavior | has antidepressant-like properties | not significantly altered | not significantly altered | significant decrease in immobility | significantly greater increase in swimming behavior | 
O=C1C(=Nc2ccc(Br)cc2)c2ccccc2N1c1ccccc1 [Example 98, 3-[(4-BROMOPHENYL)IMINO]-1-PHENYL-1,3-DIHYDRO-2H-INDOL-2-ONE] | significantly increased swimming | no significant difference in the number of climbing counts | not significantly altered | significantly decreased immobility | no significant difference in the number of climbing counts | not significantly altered | significantly decreased immobility | significantly increased swimming | produces a profile in the modified Lucki version of the FST resembling that of the clinically established antidepressant fluoxetine | no significant difference in the number of climbing counts | not significantly altered | significantly decreased immobility | significantly increased swimming | 
O=C1C(=Nc2ccc(C(F)(F)F)cc2)c2ccccc2N1c1ccccc1 [Example 95, 1-PHENYL-3-[[4-(TRIFLUOROMETHYL)PHENYL]IMINO]-1,3-DIHYDRO-2H-INDOL-2-ONE] | did not significantly alter swimming, climbing, immobility or diving behavior | did not significantly alter swimming, climbing, immobility or diving behavior | did not significantly alter swimming, climbing, immobility or diving behavior | did not significantly alter swimming, climbing, immobility or diving behavior |  |  | significantly increased rat immobility | significantly decreased swim behavior | does not produce antidepressant-like actions in the forced swim test |  |  | significantly increased rat immobility | significantly decreased swim behavior | 
